“Also recorded” adds a separate entry of the source. Where no end group is shown, it is not given here.
Tests used:
[1] = test system: BALB/c pancreatic islets; assay: Insulin secretion of isolated islets in low and high glucose (EIA/ELISA); format: cell-based, mouse; details: 3 days culture, LSF 50 μM, Ex-4 20 nM, 3 mM then 28 mM glucose, one-hour incubation
Protocol: FIG. 1 depicts the amount of insulin in the supernate sample as determined by EIA after one-hour incubation with each of 3 mM and subsequent 28 mM glucose medium.
(§1) For in vitro studies (Examples 1-3), freshly isolated BALB/c pancreatic islets were incubated at 37° C. with either LSF (50 μM) alone, Ex-4 (20 nM) alone, or with LSF/Ex-4 combined. After 3 days of culture, islets were treated with or without pro-inflammatory cytokines (10 ng/mL IL-1β, 20 ng/mL TNF-α, and 100 ng/mL IFN-γ) overnight. Insulin secretion was measured in low and high glucose using a standard elisa method for mouse insulin. Apoptotic islets were quantitatively assessed. MTT assay was used to evaluate cell metabolism and mitochondrial function.
(See FIG. 1 in which “*” and “^” indicate P<0.005 compared to “none” treatment group).

[2] = test system: human islets; details: previously published; cited from earlier work
[3] = test system: mouse islets exposed to pro-inflammatory cytokines (IL-1β, TNF-α, IFN-γ); assay: Apoptosis of mouse islets exposed to pro-inflammatory cytokines; format: cell-based; details: LSF 50 μM, Ex-4 20 nM; 10 ng/mL IL-1β, 20 ng/mL TNF-α, 100 ng/mL IFN-γ overnight
Protocol: FIG. 2 depicts the effect in apoptosis reduction in isolated mouse islets after individual and combined treatment of LSF and Ex-4 in vitro.
as §1
Cellular death (apoptosis) was quantified using an established method in mouse islets exposed to pro-inflammatory cytokines.

[4] = test system: mouse islets; assay: MTT assay of cell metabolism and mitochondrial function in isolated islets; format: cell-based; details: LSF 50 μM, Ex-4 20 nM
Protocol: FIG. 3 depicts the effect of mitochondrial metabolism (as reflected by level of MTT metabolite) observed in isolated mouse islets after individual and combined treatment with LSF and Ex-4.
as §1
We previously published, in murine β-cell lines and human islets that both ATP production and mitochondrial metabolism (MTT metabolite levels) were increased by LSF treatment.

[5] = test system: non-obese diabetic (NOD) mice; assay: Reversal of established diabetes in NOD mice, blood glucose monitoring, 28-day osmotic mini-pump; format: in vivo, mouse; details: LSF 27 mg/kg/day, Ex-4 18 nM/day
Protocol: FIG. 4 depicts average levels of blood glucose in 4 NOD mice groups treated with saline (control), Ex-4 alone, LSF alone and LSF and Ex-4 combined, respectively.
Pre-diabetic non-obese diabetic (NOD) mice were monitored until two consecutive blood glucose readings within a week were above 250 mg/dL. This indicated the animals had already become diabetic. At this point a mini-osmotic pump was filled with one of the following and implanted subcutaneously: • Normal saline (control) • Ex-4 • LSF • Ex-4 and LSF
Blood glucose levels in these mice were monitored, and a small dose of insulin was administered to the hyperglycemic mice to maintain euglycemia for the first few days. The pump was removed after 28 days, discontinuing treatment with the drug; however, the blood glucose levels were continually monitored for several more weeks. These mice were then sacrificed, and slide sections were prepared from their pancreases to evaluated histology and insulin staining (Example 5) and evidence for growth the new beta cells (Example 6).
These NOD were spontaneously diabetic between 20-25 weeks of age. The control groups include normal saline, LSF alone (27 mg/kg/day) and Ex-4 alone (18 nM/day). […] Four mice were in each group. Diabetes reversal was seen within 2-3 days after implantation of LSF/Ex-4 pumps, while hyperglycemia was controlled 10-12 days after LSF alone pump therapy.

[6] = test system: NOD mouse pancreatic sections; assay: Brdu staining of NOD mouse pancreatic sections (cell proliferation in vivo); details: diabetic NOD mice treated 28 days via mini-pumps; Brdu 50 mg/kg I.P., tissue 24 hours later
Protocol: FIG. 6 depicts results of Brdu staining of NOD mouse pancreatic sections treated with saline (control), Ex-4 alone, LSF alone and LSF and Ex-4 combined, respectively.
Ex-4/LSF-associated cell proliferation in vivo was evaluated. Diabetic NOD mice that were treated with Ex-4 alone, Ex-4 plus LSF, LSF alone and normal saline for 28 days via mini-pumps were injected with Brdu (50 mg/kg) I.P. 24 hours later, pancreatic tissues were collected and stained with an anti-Brdu antibody.

[7] = test system: murine β-cell lines; details: previously published; cited from earlier work
[8] = test system: overt diabetic NOD (Non-Obese Diabetic) mice; details: previously overt diabetic NOD mice; literature study; cited from earlier work

Molecule	insulin release upon glucose stimulation [1]	ATP production and mitochondrial metabolism (MTT metabolite levels) [2]	protection of islet cells from pro-inflammatory cytokines [3]	mitochondrial metabolism (MTT metabolite level) [4]	time after pump implantation until diabetes reversal / hyperglycemia controlled ([5]; diabetic NOD mice, S.C. mini-pump)	diabetes reversal / control of hyperglycemia during pump therapy ([5]; newly diagnosed diabetic NOD mice, S.C. osmotic mini-pump, 28 days)	Brdu-positive cells in pancreatic tissue [6]	ATP production and mitochondrial metabolism (MTT metabolite levels) [7]	effect on hyperglycemia [8]
C[C@@H](O)CCCCn1c(=O)c2c(ncn2C)n(C)c1=O [LSF, Lisofylline]	increase insulin release	increased	could protect isolated islet cells	increase mitochondrial metabolism	10 to 12 days	moderate ability to control blood glucose levels; also recorded: prevented worsening of hyperglycemia	detected	increased	–
glucagon-like peptide-1 (HAEGTFTSDVSSYLEGQAAKEFIAWLVKGR; ends and bridges not checked; UniProt P01275 98-127, looked up) [GLP-1, "incretin synthesized in the small and large intestine by the L-type cells ... released in response to food ingestion"]	–	–	–	–	–	–	–	–	no effect
